Experimental findings from publication PMC11869342, “Design and synthesis of novel HDAC6 inhibitor dimer as HDAC6 degrader for cancer treatment by palladium catalysed dimerisation” (Journal of Enzyme Inhibition and Medicinal Chemistry, 2025) are described below.

One data set relates to A549 cells. The experiment in a line: Sulforhodamine B (SRB) assay, A549. As to conditions: Homo sapiens, read-out: GI50 con. ± SEM A549. Type of data set: cell-based. As to the method: (§1) The A549 and PC-3 human lung and prostate cancer cell lines were acquired from the American Type Culture Collection (Rockville, MD). […] The cultures were kept in a 37 °C incubator with 5% CO2. When the adherent cultures reached 80% confluence, they were passaged using 0.05% trypsin-EDTA. PC-3 and A549 cells were seeded into 96-well plates in RPMI medium with 5% (v/v) foetal bovine serum for 24 h. Cells in partial wells were fixed with 10% trichloroacetic acid (TCA) to represent the initial time of compound treatment. The cells were treated with or without the indicated compound for 48 h and then were fixed with 10% TCA. After the washout with ddH2O and air-dried, SRB at 0.4% (w/v) in 1% acetic acid was added for staining. Unbound SRB was washed with 1% acetic acid and SRB-bounded cells were solubilised with 10 mM Tris base. The absorbance was read at a wavelength of 515 nm for the determination of cell growth.

For data set [1], the target named is T1, HDAC6 (Homo sapiens, UniProt Q9UBN7).
T1 sequence (Q9UBN7 1-1215): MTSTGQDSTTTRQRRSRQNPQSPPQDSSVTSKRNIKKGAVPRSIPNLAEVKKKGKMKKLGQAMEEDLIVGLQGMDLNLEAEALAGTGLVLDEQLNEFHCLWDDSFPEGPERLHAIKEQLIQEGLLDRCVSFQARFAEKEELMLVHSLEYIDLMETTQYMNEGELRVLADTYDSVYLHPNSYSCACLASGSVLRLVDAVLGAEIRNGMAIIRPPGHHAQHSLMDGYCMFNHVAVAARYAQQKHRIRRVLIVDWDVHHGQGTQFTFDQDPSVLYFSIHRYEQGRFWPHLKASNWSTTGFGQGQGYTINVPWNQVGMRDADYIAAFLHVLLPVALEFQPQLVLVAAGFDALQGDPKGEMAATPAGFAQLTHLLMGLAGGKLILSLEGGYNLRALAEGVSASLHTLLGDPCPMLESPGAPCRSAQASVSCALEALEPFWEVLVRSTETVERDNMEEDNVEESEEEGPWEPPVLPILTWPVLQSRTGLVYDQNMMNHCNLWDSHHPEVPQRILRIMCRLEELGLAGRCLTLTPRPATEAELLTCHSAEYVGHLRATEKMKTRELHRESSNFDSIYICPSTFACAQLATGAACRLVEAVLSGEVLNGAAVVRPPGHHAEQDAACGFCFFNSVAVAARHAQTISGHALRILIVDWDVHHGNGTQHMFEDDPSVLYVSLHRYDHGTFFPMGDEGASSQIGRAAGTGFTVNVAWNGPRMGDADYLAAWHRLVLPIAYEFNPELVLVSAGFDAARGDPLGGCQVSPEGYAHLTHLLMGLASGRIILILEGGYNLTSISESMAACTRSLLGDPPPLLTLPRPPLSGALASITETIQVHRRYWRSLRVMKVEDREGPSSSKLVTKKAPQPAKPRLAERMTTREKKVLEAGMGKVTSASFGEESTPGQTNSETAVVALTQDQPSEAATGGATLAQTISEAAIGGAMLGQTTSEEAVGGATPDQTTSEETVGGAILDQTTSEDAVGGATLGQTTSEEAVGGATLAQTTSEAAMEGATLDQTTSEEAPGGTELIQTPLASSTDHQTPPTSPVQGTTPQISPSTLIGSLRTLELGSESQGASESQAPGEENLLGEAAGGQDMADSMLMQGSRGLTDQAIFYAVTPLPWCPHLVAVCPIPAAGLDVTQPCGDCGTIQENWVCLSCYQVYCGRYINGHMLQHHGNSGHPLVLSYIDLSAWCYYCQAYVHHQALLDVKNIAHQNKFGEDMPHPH
The experiment in a line: HDAC enzyme activity assay (Reaction Biology), HDAC6. Type of data set: biochemical. As to conditions: for IC50: full-length recombinant hHDAC 6, RHKKAc substrate 50 μM, 2 h at 30 °C; for HDAC1/6 Selectivity: ratio of HDAC1 IC50 to HDAC6 IC50. Details: Full-length recombinant hHDAC 6 was expressed in a baculovirus expression system in SF9 cells; purchased Reaction Biology Corporation (Malvern, PA); host or cells: baculovirus / SF9 insect cells. As to the method: HDAC inhibition assays were performed by Reaction Biology Corporation (Malvern, PA). Full-length recombinant hHDAC 6 was expressed in a baculovirus expression system in SF9 cells. […] The reaction was stopped after 2 h at 30 °C . Trichostatin A was used as an internal control.

The nature of data set [2]: Solubility as observed when conducting assays. Type of data set: physicochemical.
The test system of the next data set is PC-3 cells. The experiment in a line: Sulforhodamine B (SRB) assay, PC-3. Type of data set: cell-based. The conditions noted are these: Homo sapiens, read-out: GI50 con. ± SEM PC-3. As to the method: as §1
On the technique in general: Sulforhodamine B stains cellular protein and so reports cell mass.

The next data set has as its system Ac-α-tubulin. The experiment in a line: Western blotting of Ac-α-tubulin in PC-3 cells. As to conditions: 30 μM, 24 h. Type of data set: cell-based, human. As to the method:
(§2) Figure 3. Western blotting analysis of (a) HDAC6 protein in PC-3 cells treated with various dimer compounds at 30 μM for 24 h, (b) Ac-α-tubulin protein in PC-3 cells treated with various dimer compounds at 30 μM for 24 h, (c) LC-3 I, LC-3 II, and p62 proteins in PC-3 cells treated with various dimer compounds at 30 μM for 24 h, (d) PARP-1 and Caspase-3 proteins in PC-3 cells treated with various dimer compounds at 30 μM for 24 h, (e) p-BUBR1^S670 and p-BUBR1^T680 proteins in PC-3 cells treated with various dimer compounds at 30 μM for 24 h. Glyceraldehyde 3-phosphate dehydrogenase (GAPDH) was used as the loading control.
(§3) After compound treatment, the cells were harvested and centrifuged. […] The supernatants quantified by Bio-Rad protein assay kit (Bio-Rad Laboratories, Hercules, CA) were mixed with sample buffer (0.3 M Tris pH6.8, 10% SDS, 50% glycerol, 10% β-mercaptoethanol, and 0.02% bromophenol blue) and heated at 95 °C for 10 min. The protein (30 µg) was separated by electrophoresis in 8% or 12% SDS-PAGE, transferred to PVDF membranes, and detected with specific antibodies (1:1000 dilution for the first and 1:7000 for the second antibodies). The immunoreactive proteins were detected with an enhanced chemiluminescence detection kit (Amersham, Buckinghamshire, UK) and the images were captured by ChemiDoc™ MP System (Bio-Rad Laboratories, Hercules, CA).
Background: In western blotting, separated proteins are transferred to a membrane and probed.

The next data set has as its system LC-3 II and p62. The experiment in a line: Western blotting of autophagy proteins LC-3 II and p62 in PC-3 cells. Type of data set: cell-based, human. As to conditions: 30 μM, 24 h. As for the experimental part:
as §2, §3

Another data set relates to PARP-1 and Caspase-3. The data set can be described thus: Western blotting of apoptosis biomarkers PARP-1 and Caspase-3 in PC-3 cells. Type of data set: cell-based, human. The conditions noted are these: 30 μM, 24 h. As to the method:
as §2, §3

Data set [3] has as its target T1, HDAC6. The experiment in a line: Western blotting of HDAC6 protein (degradation) in PC-3 cells. Type of data set: cell-based. Details: endogenous in cells; host or cells: PC-3 (ATCC). As to conditions: 30 μM, 24 h. As to the method:
as §2, §3

Another data set addresses T2, HDAC1 (Homo sapiens, UniProt Q13547).
T2 construct: purchased Reaction Biology Corporation (Malvern, PA)
The data set can be described thus: HDAC enzyme activity assay (Reaction Biology), HDAC1. Type of data set: biochemical.

Entries after “also recorded” stand apart in the source; their conditions may differ. Where two headings read alike, the source gives them in different places. A value given as a limit tells only on which side of the number the result lay.

T2 sequence (Q13547 whole entry): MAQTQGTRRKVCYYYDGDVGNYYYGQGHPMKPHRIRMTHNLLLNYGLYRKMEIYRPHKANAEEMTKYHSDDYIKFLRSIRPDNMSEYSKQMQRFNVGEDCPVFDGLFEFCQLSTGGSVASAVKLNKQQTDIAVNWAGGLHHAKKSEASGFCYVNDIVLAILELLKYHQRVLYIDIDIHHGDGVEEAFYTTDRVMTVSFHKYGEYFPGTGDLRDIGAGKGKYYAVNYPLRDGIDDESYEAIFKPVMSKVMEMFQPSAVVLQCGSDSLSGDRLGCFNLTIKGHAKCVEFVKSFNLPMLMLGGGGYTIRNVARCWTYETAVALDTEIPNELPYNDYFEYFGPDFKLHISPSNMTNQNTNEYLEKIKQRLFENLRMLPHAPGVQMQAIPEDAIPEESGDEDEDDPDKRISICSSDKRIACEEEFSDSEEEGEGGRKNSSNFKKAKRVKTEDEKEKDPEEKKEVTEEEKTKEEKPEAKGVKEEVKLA

In the case of `O=C(NO)c1ccc(Cn2c(=O)n(CCc3ccc(NCCOCCOCCOCCNc4ccc(CCn5c(=O)c6ccccc6n(Cc6ccc(C(=O)NO)cc6)c5=O)cc4)cc3)c(=O)c3ccccc32)cc1` [Compound 6a, 4-({3-[2-(4-{2-[2–(2-{2-[4-(2-{1-[(4-Hydroxamophenyl)methyl]-2,4-dioxoquinazolin-3-yl}ethyl)phenylamino]ethoxy}ethoxy)ethoxy]ethylamino}phenyl)ethyl]-2,4-dioxoquinazolin-1-yl}methyl)benzohydroxamic acid], the GI50 (in general, the concentration at which growth is held to half of that of the control) was above 30 µM in the data set on A549 cells (A549 cells, SRB, 48 h) and above 30 µM in the data set with PC-3 cells (PC-3 cells, SRB, 48 h). Besides, the IC50 (usually the concentration needed to halve the response being measured) on HDAC6 [1] was above 10 µM. Further, the “solubility observed when conducting assays” value in [2] was “poor solubilities”. Besides, the “Ac-α-tubulin level (Western blot)” value with Ac-α-tubulin was “unenhanced acetylated α-tubulin”.

As to `O=C(NO)c1ccc(Cn2c(=O)n(CCOCCOCCOCCn3c(=O)c4ccccc4n(Cc4ccc(C(=O)NO)cc4)c3=O)c(=O)c3ccccc32)cc1` [Compound 8a, 4-{[3-(11-{1-[(4-Hydroxamophenyl)methyl]-2,4-dioxoquinazolin-3-yl}-3,6,9-trioxaundecyl)-2,4-dioxoquinazolin-1-yl]methyl}benzohydroxamic acid], the “autophagy induction (LC-3 II level, p62 expression)” value in the data set on LC-3 II and p62 was “strong autophagy induction”. Besides, in the data set on PARP-1 and Caspase-3, the “apoptosis induction (PARP-1 cleavage, Caspase-3 activation)” value is “induce apoptosis”. Also, the GI50 in the data set on A549 cells (A549 cells, SRB, 48 h) was above 30 µM; in the data set with PC-3 cells (PC-3 cells, SRB, 48 h), 14.7 ± 1.3 µM. Further, the “HDAC6 degradation (Western blot)” value at HDAC6 [3] is listed as “degradation of HDAC6 was observed; also recorded: induced HDAC6 auto-degradation”. The IC50 amounted to 0.012 µM at HDAC6 [1] and 3.33 µM on HDAC1. Besides, the “HDAC1/6 Selectivity” value on HDAC6 [1] is reported as 273.

For the molecule `O=C(NO)c1ccc(Cn2c(=O)n(CCc3ccc(NCCOCCOCCNc4ccc(CCn5c(=O)c6ccccc6n(Cc6ccc(C(=O)NO)cc6)c5=O)cc4)cc3)c(=O)c3ccccc32)cc1` [Compound 6b, 4-{[3-(2-{4-[2–(2-{2-[4-(2-{1-[(4-Hydroxamophenyl)methyl]-2,4-dioxoquinazolin-3-yl}ethyl)phenylamino]ethoxy}ethoxy)ethylamino]phenyl}ethyl)-2,4-dioxoquinazolin-1-yl]methyl}benzohydroxamic acid], the “autophagy induction (LC-3 II level, p62 expression)” value in the data set with LC-3 II and p62 is reported as “signs of inducing autophagy”. The “apoptosis induction (PARP-1 cleavage, Caspase-3 activation)” value in the data set with PARP-1 and Caspase-3 is “did not induce apoptosis”. For the same molecule, the GI50 with A549 cells (A549 cells, SRB, 48 h) was determined as 9.1 ± 1.8 µM; in the data set on PC-3 cells (PC-3 cells, SRB, 48 h) it was 5.5 ± 0.7 µM. Further, the “HDAC6 degradation (Western blot)” value at HDAC6 [3] is “did not degrade HDAC6”. Also, the results for the IC50 at HDAC6 [1] and against HDAC1 were 0.033 µM and 9.57 µM, respectively. On HDAC6 [1], the “HDAC1/6 Selectivity” value is 283.

For `O=C(NO)c1ccc(Cn2c(=O)n(CCc3ccccc3)c(=O)c3ccccc32)cc1` [Compound 1], the GI50 in the data set on A549 cells (A549, 48 h) worked out at 8.8 µM; in the data set with PC-3 cells (PC-3, 48 h), 3.5 µM. On HDAC6 [1], the “HDAC1/6 Selectivity” value stood at 2790. The half-inhibitory concentration (IC50) on HDAC1 came to 11.2 µM.
